24 compounds from patent publication US20110178064A1, “SPIRO CONDENSED […] DERIVATIVES FOR USE AS ANTIBACTERIAL” (A[…]&D, priority 2007, published 2011) can be followed below.

Molecules are shown by their SMILES.

Escherichia coli DNA gyrase A/B tetramer, sequence (P0AES4 whole entry, one chain of several): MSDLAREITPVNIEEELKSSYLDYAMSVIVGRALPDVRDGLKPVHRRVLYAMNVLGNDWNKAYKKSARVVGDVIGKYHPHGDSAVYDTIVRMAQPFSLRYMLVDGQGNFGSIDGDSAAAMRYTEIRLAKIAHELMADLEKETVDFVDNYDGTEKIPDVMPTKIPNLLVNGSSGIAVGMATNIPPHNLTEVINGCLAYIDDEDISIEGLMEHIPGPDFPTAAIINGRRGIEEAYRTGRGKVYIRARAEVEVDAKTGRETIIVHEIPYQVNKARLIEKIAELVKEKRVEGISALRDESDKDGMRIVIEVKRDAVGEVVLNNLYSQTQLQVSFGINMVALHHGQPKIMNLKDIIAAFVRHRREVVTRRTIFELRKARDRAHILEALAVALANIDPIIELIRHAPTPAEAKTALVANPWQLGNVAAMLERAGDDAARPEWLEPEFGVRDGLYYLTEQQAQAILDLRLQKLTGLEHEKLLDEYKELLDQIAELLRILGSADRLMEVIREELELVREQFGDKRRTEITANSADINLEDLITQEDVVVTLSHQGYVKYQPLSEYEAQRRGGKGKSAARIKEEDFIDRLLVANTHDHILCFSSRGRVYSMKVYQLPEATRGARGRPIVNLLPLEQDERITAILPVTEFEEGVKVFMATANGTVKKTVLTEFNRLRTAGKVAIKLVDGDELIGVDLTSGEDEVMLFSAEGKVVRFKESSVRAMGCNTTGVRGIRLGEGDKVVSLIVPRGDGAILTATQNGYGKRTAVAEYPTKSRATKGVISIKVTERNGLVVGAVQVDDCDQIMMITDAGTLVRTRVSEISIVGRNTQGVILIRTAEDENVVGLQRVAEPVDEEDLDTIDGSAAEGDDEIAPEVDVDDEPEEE

For the assay, the target named is Escherichia coli DNA gyrase A/B tetramer (Escherichia coli, UniProt P0AES4+P0AES6). The experiment in a line: DNA gyrase supercoiling activity fluorescence polarisation assay. In kind it is biochemical. The procedure, abridged:
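Gyrase supercoiling reactions quenched with 40 nM 5′-BODIPY-FL oligodeoxynucleotide triplex probe in pH 3.5 NaCl/sodium acetate buffer; fluorescence anisotropy read after 60 min (485/535 nm).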
On the technique in general: In fluorescence polarisation assays a small probe gives low polarisation when free and higher when bound to something large.
As to `C[C@@H]1CN2c3c(nc(Br)c(F)c3Cl)CC3(C(=O)NC(=O)NC3=O)[C@H]2[C@H](C)O1` (relative stereo) [Example 114, (2R,4S,4aS)-rel-8-Bromo-10-chloro-9-fluoro-2,4-dimethyl-2,4,4a,6-tetrahydro-1H,1′H-spiro[[1,4]oxazino[4,3-a][1,5]naphthyridine-5,5′-pyrimidine]-2′,4′,6′(3′H)-trione], the IC50 stood at 2 µM.

Consider `Cc1cscc1-c1cnc2c(c1)CC1(C(=O)NC(=O)NC1=O)[C@H]1[C@H](C)O[C@H](C)CN21` (racemic) [Example 34, (6aS,7S,9R)-rel-7,9-Dimethyl-3-(4-methylthiophen-3-yl)-6a,7,9,10-tetrahydro-2′H,5H-spiro[1,4-oxazino[4,3-a][1,8]naphthyridine-6,5′-pyrimidine]-2′,4′,6′(1′H,3′H-trione], for which the IC50 came out at 15 µM. Consider `Cc1ccccc1-c1cnc2c(c1)CC1(C(=O)NC(=O)NC1=O)[C@H]1[C@H](C)O[C@H](C)CN21` (relative stereo) [Example 82, (6aS,7S,9R)-rel-7,9-Dimethyl-3-(2-methylphenyl)-6a,7,9,10-tetrahydro-2′H,5H-spiro[1,4-oxazino[4,3-a][1,8]naphthyridine-6,5′-pyrimidine]-2′,4′,6′(1′H,3′H)-trione], for which the IC50 is > 83 µM. As to `C[C@@H]1CN2c3cnc(-c4ccnnc4)cc3CC3(C(=O)NC(=O)NC3=O)[C@H]2[C@H](C)O1` (relative stereo) [Example 96, (6aS,7S,9R)-rel-7,9-Dimethyl-3-(pyridazin-4-yl)-6a,7,9,10-tetrahydro-2′H,5H-spiro[1,4-oxazino[4,3-a][1,7]naphthyridine-6,5′-pyrimidine]-2′,4′,6′(1′H,3′H)-trione], the half-inhibitory concentration (IC50) came to 3 µM. Next, `O=C1NC(=O)C2(Cc3c(F)cncc3N3CCCCC32)C(=O)N1` (stereo not drawn) [Example 5, 4-Fluoro-5,6a,7,8,9,10-Hexahydro-1′H-spiro[pyrido[1,2-a][1,7]naphthyridine-6,5′-pyrimidine]-2′,4′,6′(3′H)-trione]: > 100 µM. `C[C@@H]1CN2c3ncc(-c4cn(C)cn4)cc3CC3(C(=O)NC(=O)NC3=O)[C@H]2[C@H](C)O1` (relative stereo) [Example 33, (6aS,7S,9R)-rel-7,9-Dimethyl-3-(1-methyl-1H-imidazol-4-yl)-6a,7,9,10-tetrahydro-2′H,5H-spiro[1,4-oxazino[4,3-a][1,8]naphthyridine-6,5′-pyrimidine]-2′,4′,6′(1′H,3′H)-trione] came in with an IC50 of 48 µM. Turning to `C[C@@H]1CN2c3ncc(-c4cncnc4)cc3CC3(C(=O)NC(=O)NC3=O)[C@H]2[C@H](C)O1` (relative stereo) [Example 45, (6aS,7S,9R)-rel-7,9-Dimethyl-3-(pyrimidin-5-yl)-6a,7,9,10-tetrahydro-2′H,5H-spiro[1,4-oxazino[4,3-a][1,8]naphthyridine-6,5′-pyrimidine]-2′,4′,6′(1′H,3′H)-trione], the IC50 turned out to be 30 µM. As to `C[C@@H]1CN2c3nc(F)c(C#Cc4ccccn4)cc3CC3(C(=O)NC(=O)NC3=O)[C@H]2[C@H](C)O1` (relative stereo) [Example 21, (6aS,7S,9R)-rel-2-fluoro-7,9-dimethyl-3-(pyridin-2-ylethynyl)-6a,7,9,10-tetrahydro-1′H,5H-spiro[[1,4]oxazino[4,3-a][1,8]naphthyridine-6,5′-pyrimidine]-2′,4′,6′(3′H)-trione], the IC50 worked out at 10 µM. The compound `CC1CC(C)C2N(C1)c1cnc(Br)cc1CC21C(=O)NC(=O)NC1=O` (stereo not drawn) [Example 2, 3-Bromo-7,9-Dimethyl-5,6a,7,8,9,10-hexahydro-1′H-spiro[pyrido[1,2-a][1,7]naphthyridine-6,5′-pyrimidine]-2′,4′,6′(3′H)-trione] displayed an IC50 of 9 µM. Compound `COc1nc(-c2cnc3c(c2)CC2(C(=O)NC(=O)NC2=O)[C@H]2[C@H](C)O[C@H](C)CN32)cs1` (relative stereo) [Example 107, (6aS,7S,9R)-rel-3-(2-Methoxy-1,3-thiazol-4-yl)-7,9-dimethyl-6a,7,9,10-tetrahydro-2′H,5H-spiro[1,4-oxazino[4,3-a][1,8]naphthyridine-6,5′-pyrimidine]-2′,4′,6′(1′H,3′H)-trione] displayed an IC50 of 6 µM. For the compound `C[C@@H]1CN2c3cnc(-c4cccs4)cc3CC3(C(=O)NC(=O)NC3=O)[C@H]2[C@H](C)O1` (relative stereo) [Example 116, (6aS,7S,9R)-rel-7,9-dimethyl-3-(thiophen-2-yl)-6a,7,9,10-tetrahydro-1′H,5H-spiro[[1,4]oxazino[4,3-a][1,7]naphthyridine-6,5′-pyrimidine]-2′,4′,6′(3′H)-trione], the IC50 stood at 33 µM. Consider `C[C@@H]1CN2c3ncc(-c4ccoc4)cc3CC3(C(=O)NC(=O)NC3=O)[C@H]2[C@H](C)O1` (relative stereo) [Example 48, (6aS,7S,9R)-rel-3-(Furan-3-yl)-7,9-dimethyl-6a,7,9,10-tetrahydro-2′H,5H-spiro[1,4-oxazino[4,3-a][1,8]naphthyridine-6,5′-pyrimidine]-2′,4′,6′(1′H,3′H)-trione], for which half-maximal inhibition (IC50) was put at 17 µM. Take `C[C@@H]1CN2c3cc(Cl)ncc3CC3(C(=O)NC(=O)NC3=O)[C@H]2[C@H](C)O1` (relative stereo) [Example 115, (2R,4S,4aS)-rel-9-chloro-2,4-dimethyl-1,2,4,4a-tetrahydro-2′H,6H-spiro[1,4-oxazino[4,3-a][1,6]naphthyridine-5,5′-pyrimidine]-2′,4′,6′(1′H,3′H)-trione]: the IC50 was > 20 µM. Next, `COc1ccncc1-c1cc2c(cn1)N1C[C@@H](C)O[C@@H](C)[C@@H]1C1(C2)C(=O)NC(=O)NC1=O` (racemic) [Example 58, (6aS,7S,9R)-rel-3-(4-Methoxypyridin-3-yl)-7,9-dimethyl-6a,7,9,10-tetrahydro-2′H,5H-spiro[1,4-oxazino[4,3-a][1,7]naphthyridine-6,5′-pyrimidine]-2′,4′,6′(1″H3″H)-trione]: > 83 µM; `C[C@@H]1CN2c3nc(F)ccc3CC3(C(=O)NC(=O)NC3=O)[C@H]2[C@H](C)O1` (relative stereo) [Example 20, (6aS,7S,9R)-rel-2-Fluoro-7,9-dimethyl-6a,7,9,10-tetrahydro-1′H,5H-spiro[[1,4]oxazino[4,3-a][1,8]naphthyridine-6,5′-pyrimidine]-2′,4′,6′(3′H)-trione]: 25 µM; `CC1C[C@@H](C)[C@H]2N(C1)c1ncccc1CC21C(=O)NC(=O)NC1=O` (stereo partly drawn) [Example 7, (6aR,7R)-7,9-Dimethyl-5,6a,7,8,9,10-hexahydro-1′H-spiro[pyrido[1,2-a][1,8]naphthyridine-6,5′-pyrimidine]-2′,4′,6′(3′H)-trione]: 3 µM. To `C[C@H]1C[C@@H](C)[C@H]2N(C1)c1c(ccnc1Cl)CC21C(=O)NC(=O)NC1=O` [Example 13, (6aR,7R,9S)-1-chloro-7,9-dimethyl-5,6a,7,8,9,10-hexahydro-1′H-spiro[pyrido[1,2-a][1,7]naphthyridine-6,5′-pyrimidine]-2′,4′,6′(3′H)-trione] belongs 25 µM; to `Cc1nnc(-c2cnc3c(c2)CC2(C(=O)NC(=O)NC2=O)[C@H]2[C@H](C)O[C@H](C)CN32)s1` (relative stereo) [Example 24, (6aS,7S,9R)-rel-7,9-Dimethyl-3-(5-methyl-1,3,4-thiadiazol-2-yl)-6a,7,9,10-tetrahydro-2′H,5H-spiro[1,4-oxazino[4,3-a][1,8]naphthyridine-6,5′-pyrimidine]-2′,4′,6′(1′H,3′H)-trione], > 5 µM. For `C[C@@H]1CN2c3ncc(-c4ncco4)cc3CC3(C(=O)NC(=O)NC3=O)[C@H]2[C@H](C)O1` (relative stereo) [Example 97, (6aS,7S,9R)-rel-7,9-Dimethyl-3-(1,3-oxazol-2-yl)-6a,7,9,10-tetrahydro-2′H,5H-spiro[1,4-oxazino[4,3-a][1,8]naphthyridine-6,5′-pyrimidine]-2′,4′,6′(1′H,3′H)-trione], the IC50 is 44 µM.

Consider `C[C@@H]1CN2c3nc(F)c(C#Cc4cnccn4)cc3CC3(C(=O)NC(=O)NC3=O)[C@H]2[C@H](C)O1` (racemic) [Example 22, (6aS,7S,9R)-rel-2-Fluoro-7,9-dimethyl-3-(pyrazin-2-ylethynyl)-6a,7,9,10-tetrahydro-1′H,5H-spiro[[4]oxazino[4,3-a][1,8]naphthyridine-6,5′-pyrimidine]-2′,4′,6′(3′H)-trione], for which the IC50 was 4 µM.

`Cc1nnc(-c2cc3c(nc2F)N2C[C@@H](C)C[C@@H](C)[C@@H]2C2(C3)C(=O)NC(=O)NC2=O)s1` [Example 17, (6aR,7R,9S)-2-Fluoro-7,9-dimethyl-3-(5-methyl-1,3,4-thiadiazol-2-yl)-5,6a,7,8,9,10-hexahydro-1′H-spiro[pyrido[1,2-a][1,8]naphthyridine-6,5′-pyrimidine]-2′,4′,6′(3′H)-trione] displayed an IC50 of 6 µM. Next, `Cc1ccsc1-c1cnc2c(c1)CC1(C(=O)NC(=O)NC1=O)[C@H]1[C@H](C)O[C@H](C)CN21` (relative stereo) [Example 30, (6aS,7S,9R)-rel-7,9-Dimethyl-3-(3-methylthiophen-2-yl)-6a,7,9,10-tetrahydro-2′H,5H-spiro[1,4-oxazino[4,3-a][1,8]naphthyridine-6,5′-pyrimidine]-2′,4′,6′(1′H,3′H)-trione]: 12 µM; `C[C@@H]1CN2c3cnc(-c4ccc(N5CCOCC5)nc4)cc3CC3(C(=O)NC(=O)NC3=O)[C@H]2[C@H](C)O1` (relative stereo) [Example 112, (6aS,7S,9R)-rel-7,9-Dimethyl-3-[6-(morpholin-4-yl)pyridin-3-yl]-6a,7,9,10-tetrahydro-2′H,5H-spiro[1,4-oxazino[4,3-a][1,7]naphthyridine-6,5′-pyrimidine]-2′,4′,6′(1′H,3′H)-trione]: > 83 µM; `C[C@@H]1CN2c3cnc(-c4ccco4)cc3CC3(C(=O)NC(=O)NC3=O)[C@H]2[C@H](C)O1` (racemic) [Example 54, (6aS,7S,9R)-rel-3-(Furan-2-yl)-7,9-dimethyl-6a,7,9,10-tetrahydro-2′H,5H-spiro[1,4-oxazino[4,3-a][1,7]naphthyridine-6,5′-pyrimidine]-2′,4′,6′(1′H3″H)-trione]: > 83 µM.

By IC50 is commonly meant the concentration needed to halve the response being measured. High values mean weaker potency, low ones greater potency.
